Literature values in article PMC4862687, “GPCRs Direct Germline Development and Somatic Gonad Function in Planarians” (PLoS Biology, 2016).

What was measured:
pituitary-gonadal axis = conditions: intact rats; ref [55]; cited from earlier work
From the text: (§1) NPF expression in Drosophila brain is sexually dimorphic and is believed to be centrally involved in mating behavior [52]. Also, NPF-deficient flies show a decrease in egg laying capacity, but the same effect is not observed in NPFR-1-deficient flies. […] Conversely, in intact rats, NPY has an inhibitory effect ...

secretion of LH and GnRH = conditions: injection of NPY into sex steroid-primed ovariectomized rats; ref [53],[54]; cited from earlier work
From the text: as §1

GnRH neuronal output = test system: GnRH neuronal output; set-up: method as in PMID 3131748, PMID 24221756; conditions: mammals and teleosts; ref [61],[62]; cited from earlier work

neuropeptide Y [NPY]
effect on reproduction / pituitary-gonadal axis (pituitary-gonadal axis): inhibitory effect on reproduction by suppressing the pituitary-gonadal axis | LH and GnRH secretion (secretion of LH and GnRH): induces secretion of LH and GnRH | GnRH neuronal output (GnRH neuronal output): positively modulates GnRH neuronal output
